The values below come from patent publication US9562082B2, “Production of glycoproteins with low N-glycolylneuraminic acid (Neu5Gc) content” (LEK Pharmaceuticals D.D., priority 2009, dated 2017).

Holding throughout (assay type): cell-based, Chinese hamster
Data set [1] relates to Recombinant CHO cells. Put plainly: Content of the most acidic isoforms 7 and 8 (degree of sialylation) of secreted glycoprotein by AEX. To be noted: for percentage of the most acidic isoforms: 0.75% (w/v) DMSO. On the procedure:
Throughout the entire description, above and below and including the examples, unless explicitly stated otherwise, the degree of sialylation is given in % (w/w) and was calculated as follows. Since the inventor had not available a method to directly measure the degree of sialylation (%, w/w), she estimated same indirectly from the relative content of the most acidic isoforms of each glycoprotein. Since isoforms 7 and 8 (see next paragraph) are the most acidic ones, she figured out that an increase of isoforms 7 and 8 is an indicator for the increased degree of sialylation. The inventor measured the distribution of the isoforms of a particular glycoprotein (e.g., of darbepoetin alfa, which is a cytokine) with AEX (anion exchange chromatography). AEX is not a quantitative method. Therefore, the inventor split the histogram into three parts as follows: the most basic isoforms 1, 2, and 3, the middle acidic isoforms 4, 5, and 6, and the most acidic isoforms 7 and 8. […] Therefore, the inventor compared, for each glycoprotein tested, the content (%, w/w) of the most acidic isoforms resulting from media without and from media with the additives according to the invention. In case their content increased, the inventor concluded that the degree of sialylation had likewise increased. Therefore, the degree of sialylation in the present application is given as the relative content of the most acidic isoforms (%, w/w). The increase in the degree of sialylation (of a particular glycoprotein obtained from a host cell culture using a medium with the additives according to the present invention vs. that of said glycoprotein obtained from a host cell culture using a medium without the inventive additives) is given on the basis of the increase of the content of the most acidic isoforms (%) after cultivating the host cells in the presence vs. absence of said additives. Recombinant CHO cells expressing high titres of the glycosylated human glycoproteins were cultivated in suspension culture using rich in-house standard medium without additives according to the invention. After 2 weeks of passages, the cells were first harvested and subsequently inoculated into the same medium, however, supplemented with a range of DMSO concentrations from 0.25% to 1.50% (w/v). The effect of DMSO on growth, productivity, degree of sialylation, and Neu5Gc content was studied. “One factor at the time”-experiments with different DMSO concentrations at 37° C. and 33° C., respectively, were performed at first in an attempt to determine the DMSO concentration and temperature which are best to minimise the Neu5Gc content on the glycoproteins secreted. To study the interaction between the parameters (i) DMSO concentration, (ii) time of DMSO addition, and (iii) time of the temperature shift (from 37° C. to 33° C.), further experiments were performed with the Design-Expert/Design-Ease programme (Stat-Ease, Inc., Minneapolis, Minn., USA) using the response surface method. Parameters (i), (ii), and (iii) were chosen as numeric factors and the axial points were set slightly out of already known ranges in order to cover a wide design space. One replicate on axial points, one replicate on factorial points and 4 centre points were performed. The results were analysed using the Design of Expert (DOE) software (Design-Expert, Version 7.1). The results of the shake flask experiments were confirmed in the Biostat®B bioreactor (Sartorius, B. Braun Biotech International, Germany). Exponentially growing cells were taken from cell culture flasks having a surface area of 225 cm^2 (Corning®Costar®). A Biostat®B bioreactor with a working volume of 5 litres was inoculated with 2×10^5 cells/ml. […] Following glycoprotein purification, the isoform distribution of the immuno-affinity purified glycoproteins was determined by anion exchange chromatography (AEX). The chromatographic separation of various isoforms is based on the differences in their charges. […]

Data set [2] deals with Recombinant CHO cells. Nature of the data set: Cell viability by trypan blue exclusion. To be noted: 8 day batch cultures, all DMSO concentrations, times of addition and temperatures tested. How it is done: Cell viability was determined by the trypan blue exclusion method. The cell concentration was determined using a Vi-CELL™ Series Cell Viability Analyzer (Beckman Coulter, Fullerton, Calif., USA). Glucose, lactate, glutamine, and ammonia (NH4^+) concentrations were measured during the growth phase using a BioProfile Analyzer for mammalian cell culture (BioProfile 100 plus, Nova Biomedical, Waltham, USA). Additionally, oxygen and […] concentrations were monitored daily using pHOx (Stat Prophile pHOx Basic, Nova Biomedical, Waltham, USA). Secreted glycoprotein concentrations were quantified by enzyme linked immunosorbent assay (ELISA), and the titres were expressed in μg/ml.
Initially, the inventor avoided the addition of DMSO to the cell culture at the beginning of the bioprocess, because […] speculated that such addition might not be optimal, since the cells had no time for an optimal lag phase-growth (adaptation). […] Viable cell density and viability of the cells were measured in the middle and at the end of that period. The final titre (concentration of each glycoprotein in the culture medium) was measured in the supernatants with ELISA. […] The content of Neu5Gc on the purified glycoproteins was determined, and the acidic isoform distribution reflecting the degree of sialylation was measured with AEX.

For data set [3], the system named is Recombinant CHO cells. Put plainly: Specific growth rate. Particulars: DMSO 0.75, temperature 37. On the procedure: The specific growth rate was calculated following Equation 2 and represents the overall biomass accumulation under the growth curve from the beginning to the end of the batch process (expressed as a logarithmic value per day (day^−1)). Specific growth rate=ln(X2/X1)/(t2−t1) Equation 2 (X1 is the number of viable cells on day 0 and X2 the number of cells at the end of the repeated batches, respectively. t1 is time 0, and t2 is time 7 or the end day of the process, respectively.)

For data set [4], the system named is Recombinant CHO cells. Put plainly: Specific productivity (Qp). Particulars: DMSO 0.75, temperature 37. On the procedure: According to the optimal range of the DMSO concentration, a numerical and graphical optimisation was performed using DOE software (FIG. 3). A minimal content of Neu5Gc and a maximal content of the most acidic isoforms were chosen as very important parameters, while increased titres and growth rates were weighted as medium important parameters. The ramps were extended a little over the limits. […] The specific productivity (Qp) was calculated following Equation 1 and expressed as pg of glycoprotein/[…]=(P2-P1)/((X2+X1)*(t2-t1)/2) Equation 1 (P2 and P1 are concentrations of secreted glycoprotein at the end and at the beginning of the repeated batches, respectively; X1 and X2 are cell concentrations at the corresponding time points t1 and t2).

Take `C[S+](C)[O-]` [DMSO, dimethyl sulfoxide]: the “average content of the most acidic isoforms, all glycoproteins tested” value in the data set on Recombinant CHO cells [1] (0.5% DMSO) came out at 1.31%; in the data set on Recombinant CHO cells [1] (0.75% DMSO), 1.28%; in the data set on Recombinant CHO cells [1] (1% DMSO), 1.21%; in the data set with Recombinant CHO cells [1] (1.25% DMSO), 1.26%. Also, the “Isoforms 7&8, DOE point prediction” value in the data set on Recombinant CHO cells [1] (DMSO 0.75, temperature 37) was 1.21%. Moreover, the “percentage of the most acidic isoforms” value is reported as “about 2.2%” in the data set on Recombinant CHO cells [1] (bioreactor batch process) and “about 1.35%” in the data set on Recombinant CHO cells [1] (shake flask batch process). For the same compound, the final cell viability result in the data set with Recombinant CHO cells [2] is given as “above 97.5%”. The “Specific growth rate, DOE point prediction” value with Recombinant CHO cells [3] is 0.54 day⁻¹. Further, in the data set with Recombinant CHO cells [4], the “Specific productivity, DOE point prediction” value is listed as 2.43 pcd.
